This is an account of results in ChEMBL document CHEMBL1127713, “Anti-HIV activity of N-(2,3-dihalogenopropyl)- and N-allyl-glycine containing pentapeptides” (Bioorg Med Chem Lett, 1994).

Values after ≈ are worked out from the molar mass of the structure shown. Values joined by “and” are separate entries in the source; they are usually repeats but may differ in a detail not shown here. Identical values can stand only once. Starred links: 1 amine or outer side, 2 acyl side, 3 side chain; linkers in the order of their positions; H or OH if unused. Non-standard residues stand in square brackets, D forms with d. Residues, ends and D or L forms follow the SMILES beside them. *: point of attachment. X2 = C=CCN([C@@H](C)C(=O)[*:2])[*:1]; X1 = O=C(CN(CC(Br)CBr)[*:1])[*:2]; X3 = O=C(CN(CC(Cl)CCl)[*:1])[*:2]; NAllylGly = C=CCNCC(=O)O; Boc = CC(C)(C)OC(=O)*

Test [1] concerns the target Human immunodeficiency virus type 1 protease (Human immunodeficiency virus 1, UniProt Q72874). Nature of the test: Antiviral activity against HIV-1 in CEM cells. It is filed as functional, cell-based. The note with it: ccrf-cem.
The nature of test [2]: Selectivity index between IC50 and EC50. In kind it is functional.
The target of test [3] is Human immunodeficiency virus type 1 protease (Human immunodeficiency virus 1) (UniProt Q72874). Nature of the test: Inhibitory activity against HIV-1 Protease using Suc-TLNFPIS-4-AMC as substrate in fluorescence assay at 10e-5 concentration.
Test [4] concerns CCRF-CEM. The experiment in a line: Compound was tested for antiviral activity against HIV-1 in CEM cells. It is filed as functional, cell-based. To be noted: Homo sapiens.
In test [5] the test system is CCRF-CEM. Nature of the test: Dose required for reduce the reverse transcriptase activity in infected cell supernatant. To be noted: Homo sapiens. It is filed as functional, cell-based.
Test [6] addresses Human immunodeficiency virus type 1 protease (Human immunodeficiency virus 1) (UniProt Q72874). The experiment in a line: Inhibitory activity against HIV-1 Protease using VSQNF(NO2)PIV as substrate in spectrophotometric assay at 10e-5 concentration.
For test [7], the system named is CCRF-CEM. Nature of the test: Compound was tested for antiviral activity against HIV-1 in CEM cells; Non active compound. In kind it is functional, cell-based, Homo sapiens.

Take `C=CCN(CC(=O)N[C@H](C(=O)N[C@H](C(=O)OC)C(C)C)[C@@H](C)CC)C(=O)[C@@H](N)Cc1ccccc1` (H-F[NAllylGly]IV-OMe): in test [1], the EC50 entry was “Not Active”.

With `CC[C@H](C)[C@H](NC(=O)CN(CC(Br)CBr)C(=O)[C@H](Cc1ccccc1)NC(=O)[C@H](C)NC(=O)OC(C)(C)C)C(=O)N[C@H](C(=O)OC)C(C)C` (stereo partly specified) (Boc-AF[X1]IV-OMe), the Ratio in test [2] was over 4.5. Besides, the inhibition is 0% in test [3]; 3% and 0% in test [6]. For the same compound, the results for the concentration giving a half-maximal response (EC50) in the test with CCRF-CEM [4] and in the test on CCRF-CEM [5] were 111 µg/mL (≈ 135 µM) and 200 µg/mL (≈ 244 µM), respectively.

In the case of `C=CCN(CC(=O)N[C@H](C(=O)N[C@H](C(=O)OC)C(C)C)[C@@H](C)CC)C(=O)[C@H](Cc1ccccc1)NC(=O)[C@H](C)N` (H-AF[NAllylGly]IV-OMe), in test [1], the EC50 result is listed as “Not Active”.

For the compound `C=CCN(CC(=O)N[C@H](C(=O)N[C@H](C(=O)OC)C(C)C)[C@@H](C)CC)C(=O)[C@H](Cc1ccccc1)NC(=O)OC(C)(C)C` (Boc-F[NAllylGly]IV-OMe), the inhibition in test [3] is 0%; in test [6], 10% and 13%. In addition, the half-maximal effective concentration (EC50) entry in test [1] is “Not Active”.

For the compound `C=CCN(CC(=O)N[C@H](C(=O)N[C@H](C(=O)OC)C(C)C)[C@@H](C)CC)C(=O)[C@H](Cc1ccccc1)NC(=O)[C@H](C)NC(=O)[C@H](C)NC(=O)OC(C)(C)C` (Boc-AAF[NAllylGly]IV-OMe), in the test with CCRF-CEM [7], the IC50 entry is reported as “Not Active”. The inhibition was 0% in test [3]; 0% and 21% in test [6]. Further, in test [1], the EC50 entry is “Not Active”.

For the compound `C=CCN(CC(=O)N[C@H](C(=O)N[C@H](C(=O)OC)C(C)C)[C@@H](C)CC)C(=O)OC(C)(C)C`, in test [1], the EC50 result was “Not Active”.

For `C=CCN(C(=O)[C@H](Cc1ccccc1)NC(=O)[C@H](C)NC(=O)OC(C)(C)C)[C@@H](C)C(=O)N[C@H](C(=O)N[C@H](C(=O)OC)C(C)C)[C@@H](C)CC` (Boc-AF[X2]IV-OMe), the Ratio in test [2] was over 2.51. In addition, the inhibition in test [3] was 0%; in test [6] it was 0% and 9%. In addition, the results for the EC50 with CCRF-CEM [4] and in the test with CCRF-CEM [5] were 80 µg/mL (≈ 119 µM) and 60 µg/mL (≈ 89 µM), respectively.

Turning to `C=CCN(C(=O)[C@H](Cc1ccccc1)NC(=O)[C@H](C)NC(=O)[C@H](C)NC(=O)[C@H](CO)NC(=O)OC(C)(C)C)[C@@H](C)C(=O)N[C@H](C(=O)N[C@H](C(=O)OC)C(C)C)[C@@H](C)CC` (Boc-SAAF[X2]IV-OMe), in test [1], the EC50 entry is listed as “Not Active”.

On to `C=CCN(C(=O)[C@H](Cc1ccccc1)NC(=O)[C@H](C)NC(=O)[C@H](C)NC(=O)OC(C)(C)C)[C@@H](C)C(=O)N[C@H](C(=O)N[C@H](C(=O)OC)C(C)C)[C@@H](C)CC` (Boc-AAF[X2]IV-OMe), for which the values for the inhibition in test [3] and in test [6] were 1% and 0%, respectively. In test [1], the EC50 result is given as “Not Active”.

Regarding `C=CCN(CC(=O)N[C@H](C(=O)N[C@H](C(=O)OC)C(C)C)[C@@H](C)CC)C(=O)[C@H](Cc1ccccc1)NC(=O)[C@H](C)NC(=O)OC(C)(C)C` (Boc-AF[NAllylGly]IV-OMe), in test [2], the Ratio was found to be 4.03. Moreover, the inhibition is 0% in test [3]; 1% and 4% in test [6]. For the same compound, the EC50 in the test on CCRF-CEM [4] was 8.15 µg/mL (≈ 12.4 µM); with CCRF-CEM [5], 10 µg/mL (≈ 15.2 µM).

`CC[C@H](C)[C@H](NC(=O)CN(CC(Cl)CCl)C(=O)[C@H](Cc1ccccc1)NC(=O)[C@H](C)NC(=O)OC(C)(C)C)C(=O)N[C@H](C(=O)OC)C(C)C` (stereo partly specified) (Boc-AF[X3]IV-OMe): the inhibition in test [3] was 0%; in test [6], 0% and 12%. Besides, the EC50 was over 100 µg/mL with CCRF-CEM [4] and 100 µg/mL (≈ 137 µM) in the test on CCRF-CEM [5].

Consider `C=CCN(CC(=O)N[C@H](C(=O)N[C@H](C(=O)OC)C(C)C)[C@@H](C)CC)C(=O)[C@H](Cc1ccccc1)NC(=O)[C@H](C)NC(=O)[C@H](C)NC(=O)[C@H](CO)NC(=O)OC(C)(C)C` (Boc-SAAF[NAllylGly]IV-OMe), for which the inhibition is 0% in test [3]; 14% and 0% in test [6]. The EC50 result in test [1] is recorded as “Not Active”.

With `C=CCN(C(=O)[C@H](Cc1ccccc1)NC(=O)OC(C)(C)C)[C@@H](C)C(=O)N[C@H](C(=O)N[C@H](C(=O)OC)C(C)C)[C@@H](C)CC`, the inhibition in test [3] is 3%; in test [6], 0% and 7%. For the same compound, in test [1], the EC50 result is listed as “Not Active”.

In the case of `CC[C@H](C)[C@H](NC(=O)CN(CC(Cl)CCl)C(=O)[C@H](Cc1ccccc1)NC(=O)OC(C)(C)C)C(=O)N[C@H](C(=O)OC)C(C)C` (stereo partly specified), the inhibition was 0% in test [3]; 0% and 2% in test [6]. Moreover, the EC50 result in test [1] is recorded as “Not Active”.

`CC[C@H](C)[C@H](NC(=O)CN(CC(Br)CBr)C(=O)[C@H](Cc1ccccc1)NC(=O)OC(C)(C)C)C(=O)N[C@H](C(=O)OC)C(C)C` (stereo partly specified): the inhibition in test [3] was 0%; in test [6], 8% and 10%. In test [1], the EC50 entry was “Not Active”.

For `C=CCNCC(=O)N[C@H](C(=O)N[C@H](C(=O)OC)C(C)C)[C@@H](C)CC`, in test [1], the EC50 result is “Not Active”.

By EC50 is commonly meant the concentration at which the effect is half-maximal. Usually inhibition stands for the relative decrease from the control value, in per cent.
